Laboratory results taken from the NIST ThermoML archive (doi:10.1016/j.tca.2016.05.007).
Numbers after ± are expanded uncertainties.

Assay: molar heat capacity at constant pressure
Conditions: 101.33 kPa, Small (less than 1 g) adiabatic calorimetry

COc1ccc(C2(c3ccc(OC)c(C)c3)OC(=O)c3ccccc32)cc1C [3,3-bis(4-methoxy-3-methylphenyl)-1(3H)-isobenzofuranone]
Conditions	molar heat capacity at constant pressure [J/K/mol]
122.17 K, Crystal	213.95 ± 0.86
122.52 K, Glass	216.46 ± 0.87
124.01 K, Crystal	216.41 ± 0.87
124.36 K, Glass	219.13 ± 0.88
125.87 K, Crystal	218.89 ± 0.88
126.22 K, Glass	221.66 ± 0.89
127.75 K, Crystal	221.61 ± 0.89
128.1 K, Glass	224.36 ± 0.9
129.65 K, Crystal	224.19 ± 0.9
129.99 K, Glass	227.11 ± 0.91
131.57 K, Crystal	226.74 ± 0.91
131.9 K, Glass	229.75 ± 0.92
133.5 K, Crystal	229.52 ± 0.91
133.83 K, Glass	232.44 ± 0.92
135.45 K, Crystal	232.5 ± 0.92
135.78 K, Glass	234.99 ± 0.93
137.41 K, Crystal	235.25 ± 0.93
137.74 K, Glass	237.67 ± 0.94
139.4 K, Crystal	237.93 ± 0.94
139.72 K, Glass	240.4 ± 0.95
141.4 K, Crystal	240.84 ± 0.95
141.72 K, Glass	243.28 ± 0.96
143.41 K, Crystal	243.44 ± 0.96
143.74 K, Glass	246.09 ± 0.97
145.45 K, Crystal	246.17 ± 0.97
145.77 K, Glass	248.92 ± 0.98
147.5 K, Crystal	249.06 ± 0.98
147.82 K, Glass	251.76 ± 0.99
149.57 K, Crystal	252.1 ± 0.99
149.89 K, Glass	254.31 ± 1
151.66 K, Crystal	254.85 ± 1
151.97 K, Glass	257.37 ± 1
153.77 K, Crystal	257.6 ± 1
154.07 K, Glass	260.38 ± 1
155.89 K, Crystal	260.26 ± 1
156.2 K, Glass	263.17 ± 1
158.03 K, Crystal	263.29 ± 1
158.33 K, Glass	266.05 ± 1
160.19 K, Crystal	265.94 ± 1
160.48 K, Glass	269 ± 1.1
162.37 K, Crystal	268.95 ± 1.1
162.64 K, Glass	272.01 ± 1.1
164.56 K, Crystal	271.82 ± 1.1
164.81 K, Glass	275.02 ± 1.1
166.77 K, Crystal	274.83 ± 1.1
167 K, Glass	277.98 ± 1.1
169 K, Crystal	277.76 ± 1.1
169.19 K, Glass	280.78 ± 1.1
171.25 K, Crystal	280.87 ± 1.1
171.4 K, Glass	283.98 ± 1.1
173.51 K, Crystal	283.67 ± 1.1
173.62 K, Glass	286.89 ± 1.1
175.79 K, Crystal	286.71 ± 1.1
175.85 K, Glass	289.88 ± 1.1
178.09 K, Crystal	289.96 ± 1.1
178.09 K, Glass	293 ± 1.1
180.35 K, Glass	296.49 ± 1.1
180.41 K, Crystal	293.2 ± 1.1
182.62 K, Glass	299.4 ± 1.2
182.75 K, Crystal	296.08 ± 1.1
184.9 K, Glass	302.23 ± 1.2
185.1 K, Crystal	299.36 ± 1.2
187.19 K, Glass	305.37 ± 1.2
187.47 K, Crystal	302.25 ± 1.2
189.49 K, Glass	308.6 ± 1.2
189.86 K, Crystal	305.36 ± 1.2
191.81 K, Glass	311.72 ± 1.2
192.26 K, Crystal	308.64 ± 1.2
194.14 K, Glass	314.93 ± 1.2
194.69 K, Crystal	311.89 ± 1.2
196.48 K, Glass	318.26 ± 1.2
197.13 K, Crystal	315.34 ± 1.2
198.84 K, Glass	321.49 ± 1.2
199.32 K, Crystal	317.71 ± 1.2
201.2 K, Glass	324.99 ± 1.2
201.85 K, Crystal	321.03 ± 1.2
203.58 K, Glass	328.08 ± 1.2
204.39 K, Crystal	324.18 ± 1.2
205.97 K, Glass	331.65 ± 1.3
206.95 K, Crystal	328.02 ± 1.2
208.37 K, Glass	334.98 ± 1.3
209.51 K, Crystal	331.38 ± 1.3
210.79 K, Glass	338.72 ± 1.3
212.09 K, Crystal	334.57 ± 1.3
213.22 K, Glass	342.02 ± 1.3
214.68 K, Crystal	337.96 ± 1.3
215.66 K, Glass	345.52 ± 1.3
217.29 K, Crystal	341.78 ± 1.3
218.12 K, Glass	349.05 ± 1.3
219.9 K, Crystal	345.52 ± 1.3
220.58 K, Glass	352.67 ± 1.3
222.52 K, Crystal	348.92 ± 1.3
223.06 K, Glass	355.96 ± 1.4
225.16 K, Crystal	352.6 ± 1.3
225.55 K, Glass	359.74 ± 1.4
227.81 K, Crystal	355.97 ± 1.4
228.02 K, Glass	362.84 ± 1.4
230.46 K, Glass	366.31 ± 1.4
230.47 K, Crystal	359.41 ± 1.4
232.95 K, Glass	369.75 ± 1.4
233.14 K, Crystal	362.97 ± 1.4
235.43 K, Glass	373.33 ± 1.4
235.82 K, Crystal	366.8 ± 1.4
237.94 K, Glass	377.18 ± 1.4
238.52 K, Crystal	370.5 ± 1.4
240.46 K, Glass	380.87 ± 1.4
241.23 K, Crystal	373.97 ± 1.4
243.01 K, Glass	384.18 ± 1.4
243.95 K, Crystal	377.59 ± 1.4
245.58 K, Glass	387.76 ± 1.5
246.68 K, Crystal	381.22 ± 1.4
248.17 K, Glass	391.43 ± 1.5
249.42 K, Crystal	384.68 ± 1.4
250.78 K, Glass	395.34 ± 1.5
252.17 K, Crystal	388.51 ± 1.5
253.42 K, Glass	399.08 ± 1.5
254.94 K, Crystal	392.35 ± 1.5
256.07 K, Glass	402.8 ± 1.5
257.72 K, Crystal	395.86 ± 1.5
258.74 K, Glass	406.86 ± 1.5
260.51 K, Crystal	399.92 ± 1.5
261.44 K, Glass	410.9 ± 1.5
263.31 K, Crystal	403.6 ± 1.5
264.16 K, Glass	414.85 ± 1.6
266.12 K, Crystal	407.84 ± 1.5
266.89 K, Glass	419.34 ± 1.6
268.94 K, Crystal	412.03 ± 1.6
269.65 K, Glass	423.9 ± 1.6
271.78 K, Crystal	417 ± 1.6
272.43 K, Glass	428.57 ± 1.6
274.62 K, Crystal	419.54 ± 1.6
275.22 K, Glass	431.8 ± 1.6
277.48 K, Crystal	423.7 ± 1.6
278.04 K, Glass	436.42 ± 1.6
280.36 K, Crystal	427.79 ± 1.6
280.88 K, Glass	440.97 ± 1.6
282.95 K, Crystal	430.44 ± 1.6
283.74 K, Glass	445.62 ± 1.7
285.84 K, Crystal	434.94 ± 1.6
286.62 K, Glass	450.63 ± 1.7
288.75 K, Crystal	438.86 ± 1.6
289.52 K, Glass	455.31 ± 1.7
291.64 K, Crystal	442.83 ± 1.6
292.44 K, Glass	460.3 ± 1.7
294.51 K, Crystal	446.52 ± 1.7
295.38 K, Glass	465.32 ± 1.7
297.4 K, Crystal	449.56 ± 1.7
298.34 K, Glass	470.91 ± 1.8
301.33 K, Glass	473.58 ± 1.8
303.26 K, Crystal	457.78 ± 1.7
304.32 K, Glass	491.69 ± 1.8
306.21 K, Crystal	461.74 ± 1.7
307.3 K, Glass	525.07 ± 2
309.18 K, Crystal	465.91 ± 1.7
310.26 K, Glass	604.32 ± 2.2
312.18 K, Crystal	470.02 ± 1.8
313.23 K, Glass	614.14 ± 2.2
315.19 K, Crystal	474.07 ± 1.8
316.23 K, Metastable liquid	622.32 ± 2.7
318.23 K, Crystal	478.43 ± 1.8
319.25 K, Metastable liquid	625.96 ± 2.7
321.28 K, Crystal	482.81 ± 1.8
322.29 K, Metastable liquid	629.84 ± 2.7
324.35 K, Crystal	487.1 ± 1.8
325.35 K, Metastable liquid	633.32 ± 2.7
327.44 K, Crystal	491.54 ± 1.8
328.43 K, Metastable liquid	636.56 ± 2.8
330.55 K, Crystal	495.88 ± 1.8
331.52 K, Metastable liquid	639.81 ± 2.8
333.68 K, Crystal	500.17 ± 1.9
334.64 K, Metastable liquid	642.98 ± 2.8
336.81 K, Crystal	504.57 ± 1.9
337.78 K, Metastable liquid	646.52 ± 2.8
339.94 K, Crystal	508.36 ± 1.9
340.93 K, Metastable liquid	649.55 ± 2.8
343.08 K, Crystal	512.55 ± 1.9
344.11 K, Metastable liquid	652.75 ± 2.8
346.25 K, Crystal	517.45 ± 1.9
347.3 K, Metastable liquid	656.04 ± 2.8
349.43 K, Crystal	521.7 ± 1.9
350.51 K, Metastable liquid	659.31 ± 2.8
352.63 K, Crystal	525.97 ± 1.9
353.74 K, Metastable liquid	662.1 ± 2.9
355.85 K, Crystal	530.55 ± 2
356.97 K, Metastable liquid	665.61 ± 2.9
359.09 K, Crystal	535.23 ± 2
360.22 K, Metastable liquid	669.03 ± 2.9
362.34 K, Crystal	540.42 ± 2
363.49 K, Metastable liquid	672.55 ± 2.9
365.61 K, Crystal	545.96 ± 2
366.77 K, Metastable liquid	676.27 ± 2.9
368.9 K, Crystal	551.67 ± 2
370.07 K, Metastable liquid	680.12 ± 2.9
372.2 K, Crystal	556.9 ± 2
